Assay results: ChEMBL document CHEMBL5154927, “Discovery of Novel Bicyclic Phenylselenyl-Containing Hybrids: An Orally Bioavailable, Potential, and Multiacting Class of Estrogen Receptor Modulators against Endocrine-Resistant Breast Cancer” (J Med Chem, 2022)
The source made the active and inactive calls. The calls are words filed in the database; no cut-off is given here.

Tests used:
LCC2 [1] = assay: Induction of mitochondrial membrane potential loss in tamoxifen-resistant human LCC2 cells at 5 to 30 uM incubated for 48 hrs by JC-1 staining based flow cytometry; assay type: functional, cell-based; conditions: dose 5-30 µM
[2] = Cmax in BALB/C mouse at 20 mg/kg, po by LC-MS/MS analysis; assay type: ADME, organism-based; set-up: dose 20 mg/kg, route po; conditions: in vivo
MCF7 [3] = assay: Induction of apoptosis in human MCF7 cells assessed as decrease in Bcl2 level at 0.5 to 4 uM incubated for 48 hrs by western blot analysis; assay type: functional, cell-based; conditions: dose 0.5-4 µM
MCF7 [4] = assay: Induction of apoptosis in human MCF7 cells assessed as increase in Bax level at 0.5 to 4 uM incubated for 48 hrs by western blot analysis; assay type: functional, cell-based; conditions: dose 0.5-4 µM
LCC2 [5] = assay: Induction of apoptosis in tamoxifen-resistant human LCC2 cells assessed as decrease in Bcl-2/Bax ratio by western blot analysis; assay type: functional, cell-based; conditions: DDE = dose-dependent effect
[6] = target: T1, Hexokinase-1 (Homo sapiens) (UniProt P19367); assay: Inhibition of human recombinant hexokinase-1 assessed as NADPH generation measured after 1 hr by HPLC analysis; conditions: DDE = dose-dependent effect
T1 sequence (whole entry): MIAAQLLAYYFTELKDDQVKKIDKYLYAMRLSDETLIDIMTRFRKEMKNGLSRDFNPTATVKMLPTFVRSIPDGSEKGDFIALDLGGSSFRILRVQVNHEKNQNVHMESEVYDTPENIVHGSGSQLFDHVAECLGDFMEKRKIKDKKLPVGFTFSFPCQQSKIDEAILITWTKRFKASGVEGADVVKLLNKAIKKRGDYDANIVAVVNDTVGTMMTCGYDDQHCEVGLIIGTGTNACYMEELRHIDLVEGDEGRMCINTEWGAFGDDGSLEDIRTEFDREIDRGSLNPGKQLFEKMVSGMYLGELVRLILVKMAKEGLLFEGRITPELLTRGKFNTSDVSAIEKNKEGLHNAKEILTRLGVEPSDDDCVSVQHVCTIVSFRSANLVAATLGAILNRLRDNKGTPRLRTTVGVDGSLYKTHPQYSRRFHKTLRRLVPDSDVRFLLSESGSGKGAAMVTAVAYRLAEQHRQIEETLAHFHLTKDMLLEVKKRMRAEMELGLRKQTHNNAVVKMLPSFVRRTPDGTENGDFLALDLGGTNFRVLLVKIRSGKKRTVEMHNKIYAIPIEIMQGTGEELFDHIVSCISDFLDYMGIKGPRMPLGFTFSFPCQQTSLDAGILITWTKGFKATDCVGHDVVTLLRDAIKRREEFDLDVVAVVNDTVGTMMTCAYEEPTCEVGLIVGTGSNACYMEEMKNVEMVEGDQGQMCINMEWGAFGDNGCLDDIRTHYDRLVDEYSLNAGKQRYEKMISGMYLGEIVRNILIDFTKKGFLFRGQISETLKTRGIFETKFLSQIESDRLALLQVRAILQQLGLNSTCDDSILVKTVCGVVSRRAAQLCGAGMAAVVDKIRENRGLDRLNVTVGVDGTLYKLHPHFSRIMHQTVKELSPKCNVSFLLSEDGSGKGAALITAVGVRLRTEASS

MCF7 [7] = assay: Antitumor activity against human MCF7 cells xenografted in BALB/C mouse assessed as reduction of tumor volume at 20 mg/kg, po measured every 2 days for 34 days; assay type: functional, organism-based; conditions: time 34.0 day
[8] = Half life in BALB/C mouse at 20 mg/kg, po by LC-MS/MS analysis; assay type: ADME, organism-based; conditions: in vivo
[9] = target: T1, Hexokinase-1 (Homo sapiens); assay: Binding affinity to hexokinase-1 in human MCF7 cell lysate measured after overnight incubation by LC-MS/MS analysis; assay type: subcellular; conditions: filed as antagonist, time 14.0 hrs
LCC2 [10] = assay: Induction of apoptosis in tamoxifen-resistant human LCC2 cells at 5 to 30 uM incubated for 48 hrs by annexin V-FITC staining based flow cytometry; assay type: functional, cell-based; conditions: dose 5-30 µM
MCF7 [11] = assay: Downregulation of hexokinase-1 expression in human MCF7 cell mitochondria at 16 uM measured after 24 hrs by DAPI staining based immunofluorescence microscopy; assay type: functional
MCF7 [12] = assay: Induction of apoptosis in human MCF7 cells assessed as total apoptotic cells at 4 uM incubated for 48 hrs by annexin V-FITC staining based flow cytometry; assay type: functional
[13] = Clearance in BALB/C mouse at 5 mg/kg, iv by LC-MS/MS analysis; assay type: ADME, organism-based; conditions: in vivo
[14] = Antitumor activity against tamoxifen-resistant human LCC2 cells xenografted in BALB/C mouse assessed as tumor growth inhibition at 20 mg/kg, po measured every 2 days for 22 days; assay type: functional; conditions: LCC2, 528 h, time 22 day, read-out: TGI
[15] = Half life in BALB/C mouse at 5 mg/kg, iv by LC-MS/MS analysis; assay type: ADME, organism-based; conditions: in vivo
MCF7 [16] = assay: Induction of apoptosis in human MCF7 cells assessed as increase in late apoptotic cells at 0.5 to 4 uM incubated for 48 hrs by annexin V-FITC staining based flow cytometry; assay type: functional, cell-based; conditions: dose 0.5-4 µM

SMILES: O=S(=O)(Oc1cccc2ccccc12)C1CC2OC1C(c1ccc([Se]c3ccccc3)cc1)=C2c1ccc(O)cc1 (stereo unspecified)
- Activity (LCC2 [1]): Active
- Cmax [2]: 400 ng/mL
- Activity (MCF7 [3]): Active
- Activity (MCF7 [4]): Active
- Activity (LCC2 [5]): Dde
- Activity [6]: Dde
- Activity (MCF7 [7]): Active
- half-life [8]: 0.93 h
- Activity [9]: Active
- Activity (LCC2 [10]): Active
- Activity (MCF7 [11]): Active
- Activity (MCF7 [12]): 19.98%
- clearance [13]: 52.7 mL/min/kg
- inhibition in vivo at 20 mg/kg [14]: 57.3%
- half-life [15]: 4.65 h
- Activity (MCF7 [16]): Active
